# Molecular target: T1, APOL1 (Homo sapiens, UniProt O14791)
# T1 sequence (O14791 1-398 S342G/I384M): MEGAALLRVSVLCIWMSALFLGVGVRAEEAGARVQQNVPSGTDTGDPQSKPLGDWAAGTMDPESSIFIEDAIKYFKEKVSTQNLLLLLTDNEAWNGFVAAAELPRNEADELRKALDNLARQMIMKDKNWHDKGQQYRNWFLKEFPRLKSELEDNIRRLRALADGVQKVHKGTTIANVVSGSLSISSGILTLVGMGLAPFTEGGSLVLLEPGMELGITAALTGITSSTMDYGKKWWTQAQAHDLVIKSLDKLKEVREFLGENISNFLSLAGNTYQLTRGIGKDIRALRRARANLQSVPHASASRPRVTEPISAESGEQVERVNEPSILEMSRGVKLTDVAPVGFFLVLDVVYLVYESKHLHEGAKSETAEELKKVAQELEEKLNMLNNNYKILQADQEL
# Experiment: MultiTox-Fluor Multiplex Cytotoxicity Assay in tet-inducible APOL1 T-REx-HEK293 cells
# Assay type: cell-based
# Settings: tet-inducible transgenic APOL1 T-REx-HEK293 cell lines, 50 ng/mL tet, 24 hours, ratio of dead to live cells; read-out: IP50 (nM) (i.e., IC50 for cell proliferation)
# Protocol: The MultiTox-Fluor Multiplex Cytotoxicity Assay is a single-reagent-addition, homogeneous, fluorescence assay that measures the number of live and dead cells simultaneously in culture wells. The assay measures cell viability and cytotoxicity by detecting two distinct protease activities. The live-cell protease activity is restricted to intact viable cells and is measured using a fluorogenic, cell-permeant peptide glycyl-phenylalanylamino fluorocoumarin (GF-AFC) substrate. The substrate enters intact cells, where it is cleaved to generate a fluorescent signal proportional to the number of living cells. […] A second, cell-impermeant, fluorogenic peptide substrate (bis-AAF-R110 Substrate) is used to measure dead-cell protease that has been released from cells that have lost membrane integrity. A ratio of dead to live cells is used to normalize data.
# Briefly, the tet-inducible transgenic APOL1 T-REx-HEK293 cell lines were incubated with 50 ng/mL tet to induce APOL1 in the presence of 3-(2-(4-fluorophenyl)-1H-indol-3-yl)-N-((3S,4R)-4-hydroxy-2-oxopyrrolidin-3-yl)propenamide at 10.03, 3.24, 1.13, 0.356, 0.129, 0.042, 0.129, 0.0045, 0.0015, 0.0005 μM in duplicate for 24 hours in a humidified 37° C. incubator. The MultiTox reagent was added to each well and placed back in the incubator for an additional 30 minutes. The plate was read on the EnVision plate reader. A ratio of dead to live cells was used to normalize, and data was imported, analyzed, and fit using Genedata Screener (Basel, Switzerland) software. Data was normalized using percent of control, no tet (100% viability), and 50 ng/mL tet treated (0% viability),and fit using Smart Fit. The reagents, methods, and complete protocol for the MultiTox assay are described below.
# Human embryonic kidney (HEK293) cell lines containing a tet-inducible expression system (T-REx™; Invitrogen, Carlsbad, CA) and Adeno-associated virus site 1 pAAVS1-Puro-APOL1 G0 or pAAVS1-Puro-APOL1 G1 or pAAVS1-Puro-APOL1 G2 Clones G0 DC2.13, Gi DC3.25, and G2 DC4.44 were grown in a T-225 flask at ˜90% confluency in cell growth media (DMEM, 10% Tet-free FBS, 2 mM L-glutamine, 100 Units/mL penicillin-streptomycin, 5 μg/mL blasticidin S HCl, 1 μg/mL puromycin dihydrochloride). Cells were washed with DPBS and then trypsinized to dissociate from the flask. Media was used to quench the trypsin, cells were then pelleted at 200 g and resuspended in fresh cell assay media (DMEM, 2% Tet-free FBS, 2 mM L-glutamine, 100 Units/mL penicillin-streptomycin). Cells were counted and diluted to 1.17×10^6 cells/mL. 20 μL of cells (23,400/well) were dispensed in every well of a 384-well Poly-D-Lysine coated plate using the Multidrop dispenser. The plates were then incubated at room temperature for one hour.
# Tetracycline is needed to induce APOL1 expression. 1 mg/mL tet stock in water was diluted to 250 ng/mL (5×) in cell assay media. 60 μL of cell assay media (no tet control) was dispensed in columns 1 and 24, and 60 μL of 5× tet in 384-PP-round bottom plate was dispensed in columns 2 to 23 with the Multidrop dispenser.
# Assay ready plates from the Global Compound Archive were ordered using template 384_APOLICell_DR10n2_50 uM_v3. Compounds were dispensed at 200 nL in DMSO. The final top concentration was 10 μM with a 10 point 3-fold dilution in duplicate in the MultiTox assay.
# 20 μL was transferred from the 5× tet plate to the ARP and mixed, then 5 μL of 5× tet and the compounds were transferred to the cell plate and mixed using the Bravo. The cell plate was placed in the humidified 37° C. 5% CO2 incubator for 24 hours.
# The MultiTox-Fluor Multiplex Cytotoxicity Assay was performed in accordance with the manufacturer's protocol. After cells were incubated with tet and compound for 24 hours, 25 μL of 1x MultiTox reagent was added to each well using the Multidrop dispenser; the plates were placed on a plate shaker (600 rpm) for 2 minutes, then centrifuged briefly and placed back in the 37° C. incubator for 30 minutes. […]
smiles,measurement,value
"C[C@H]1CC2(C[C@@H](c3cn(C)nn3)N1)OC(C(N)=O)c1cc(Cl)ccc12 (single isomer, unassigned) [Compound 40, (2′S,6′S)-6-chloro-2′-methyl-6′-(1-methyltriazol-4-yl)spiro[1H-isobenzofuran-3,4′-piperidine]-1-carboxamide]",IC50,50 to 500 nM
"C[C@H]1CC2(C[C@@H](c3cn(C)nn3)N1)OC(C(N)=O)c1ccc(Cl)cc12 (single isomer, unassigned) [Compound 42, (2′S,6′S)-5-chloro-2′-methyl-6′-(1-methyltriazol-4-yl)spiro[1H-isobenzofuran-3,4′-piperidine]-1-carboxamide]",IC50,50 to 500 nM
C[C@H]1C[C@@]2(C[C@@H](c3cn(C)nn3)N1)OCCc1cc(O)c(Cl)cc12 [Compound 1],IC50,> 500 nM
C[C@H]1C[C@@]2(C[C@@H](c3cn(C)nn3)N1)OCCc1ccc(Cl)c(O)c12 [Compound 2],IC50,< 50 nM
C[C@H]1C[C@@]2(C[C@@H](c3cnn(CCS(C)(=O)=O)c3)N1)OCCc1cc(O)c(Cl)cc12 [Compound 3],IC50,> 500 nM
C[C@H]1C[C@@]2(C[C@@H](c3ccn(CCS(C)(=O)=O)c3)N1)OCCc1ccc(Cl)c(O)c12 [Compound 4],IC50,50 to 500 nM
COc1ccc2c(c1)CCO[C@@]21C[C@@H](c2cn(C)nn2)N[C@@H](C)C1 [Compound 5],IC50,< 50 nM
COc1cccc2c1[C@]1(C[C@@H](c3cn(C)nn3)N[C@@H](C)C1)OCC2 [Compound 6],IC50,> 500 nM
C[C@H]1C[C@@]2(C[C@@H](c3cn(C)nn3)N1)OCCc1cc(O)ccc12 [Compound 7],IC50,50 to 500 nM
C[C@H]1C[C@@]2(C[C@@H](c3cn(C)nn3)N1)OCCc1cccc(O)c12 [Compound 8],IC50,50 to 500 nM
C[C@H]1C[C@@]2(C[C@@H](c3cn(C)nn3)N1)OCCc1cc(Br)ccc12 [Compound 9],IC50,< 50 nM
C[C@H]1C[C@@]2(C[C@@H](c3cn(C)nn3)N1)OCCc1ccc(Cl)cc12 [Compound 10],IC50,< 50 nM
C[C@H]1C[C@@]2(C[C@@H](c3cn(C)nn3)N1)OCCc1ccc(C#N)cc12 [Compound 11],IC50,50 to 500 nM
C[C@H]1C[C@@]2(C[C@@H](c3cn(C)nn3)N1)OCCc1ccccc12 [Compound 12],IC50,< 50 nM
"CCc1ccc2c(c1)[C@]1(C[C@@H](c3cn(C)nn3)N[C@@H](C)C1)OCC2 [Compound 13, (1S,2′S,6′S)-7-ethyl-2′-methyl-6′-(1-methyl-1H-1,2,3-triazol-4-yl)spiro[isochromane-1,4′-piperidine]]",IC50,< 50 nM
C[C@H]1C[C@@]2(C[C@@H](c3cn(C)nn3)N1)OCCc1cc(OS(=O)(=O)C(F)(F)F)ccc12 [Compound 14],IC50,50 to 500 nM
C[C@H]1C[C@@]2(C[C@@H](c3cn(C)nn3)N1)OCCc1cc(Cl)ccc12 [Compound 15],IC50,< 50 nM
Cc1ccc2c(c1)CCO[C@@]21C[C@@H](c2cn(C)nn2)N[C@@H](C)C1 [Compound 16],IC50,< 50 nM
CCc1ccc2c(c1)CCO[C@@]21C[C@@H](c2cn(C)nn2)N[C@@H](C)C1 [Compound 17],IC50,< 50 nM
CC(C)c1ccc2c(c1)CCO[C@@]21C[C@@H](c2cn(C)nn2)N[C@@H](C)C1 [Compound 18],IC50,< 50 nM
COC(=O)c1ccc2c(c1)CCO[C@@]21C[C@@H](c2cn(C)nn2)N[C@@H](C)C1 [Compound 19],IC50,> 500 nM
C[C@H]1C[C@@]2(C[C@@H](c3cn(C)nn3)N1)OCCc1cc(C(C)(C)O)ccc12 [Compound 20],IC50,50 to 500 nM
C[C@H]1C[C@@]2(C[C@@H](c3cn(C)nn3)N1)OCCc1cc(C#N)ccc12 [Compound 21],IC50,50 to 500 nM
C[C@H]1C[C@@]2(C[C@@H](c3cn(C)nn3)N1)OCCc1cc(CO)ccc12 [Compound 22],IC50,> 500 nM
C[C@H]1C[C@@]2(C[C@@H](c3cn(C)nn3)N1)OCCc1cc(C(F)(F)F)ccc12 [Compound 23],IC50,< 50 nM
CC1CC2(CC(c3cnn(CCS(C)(=O)=O)c3)N1)OCCc1ccc(Cl)cc12 (stereo not shown) [Compound 24],IC50,50 to 500 nM
C[C@H]1C[C@@]2(C[C@@H](c3cn(C)nn3)N1)OC[C@@H](O)c1cc(Cl)ccc12 [Compound 25],IC50,< 50 nM
C[C@H]1C[C@@]2(C[C@@H](c3cn(C)nn3)N1)OC[C@H](O)c1cc(Cl)ccc12 [Compound 26],IC50,< 50 nM
"C[C@H]1C[C@@]2(C[C@@H](c3cn(C)nn3)N1)OC[C@@H](O)c1cc(C(F)(F)F)ccc12 [Compound 27, (1S,2′S,4S,6′S)-2′-methyl-6′-(1-methyl-1H-1,2,3-triazol-4-yl)-6-(trifluoromethyl)spiro[isochromane-1,4′-piperidin]-4-ol]",IC50,< 50 nM
"C[C@H]1C[C@@]2(C[C@@H](c3cn(C)nn3)N1)OC[C@H](O)c1cc(C(F)(F)F)ccc12 [Compound 28, (1S,2′S,4R,6′S)-2′-methyl-6′-(1-methyl-1H-1,2,3-triazol-4-yl)-6-(trifluoromethyl)spiro[isochromane-1,4′-piperidin]-4-ol]",IC50,< 50 nM
C[C@H]1C[C@@]2(C[C@@H](c3cn(C)nn3)N1)OCC(O)c1ccc(Cl)cc12 (stereo partly shown) [Compound 29],IC50,50 to 500 nM
"C[C@H]1C[C@@]2(C[C@@H](c3cn(C)nn3)N1)OCC(O)c1ccc(Cl)cc12 (stereo partly drawn) [Compound 30, (1S,2′S,6′S)-7-chloro-2′-methyl-6′-(1-methyl-1H-1,2,3-triazol-4-yl)spiro[isochromane-1,4′-piperidin]-4-ol]",IC50,50 to 500 nM
"C[C@H]1C[C@]2(C[C@@H](c3cn(C)nn3)N1)C(=O)Nc1ccccc12 [Compound 31, (2′S,3R,6′S)-2′-methyl-6′-(1-methyltriazol-4-yl)spiro[indoline-3,4′-piperidine]-2-one]",IC50,> 500 nM
"C[C@H]1C[C@@]2(C[C@@H](c3cn(C)nn3)N1)C(=O)Nc1ccccc12 [Compound 32, (2′S,3S,6′S)-2′-methyl-6′-(1-methyltriazol-4-yl)spiro[indoline-3,4′-piperidine]-2-one]",IC50,< 50 nM
"Cc1ccc2c(c1)NC(=O)[C@@]21C[C@@H](c2cn(C)nn2)N[C@@H](C)C1 [Compound 33, (2′S,3S,6′S)-2′,6-dimethyl-6′-(1-methyltriazol-4-yl)spiro[indoline-3,4′-piperidine]-2-one]",IC50,< 50 nM
"Cc1ccc2c(c1)[C@]1(C[C@@H](c3cn(C)nn3)N[C@@H](C)C1)C(=O)N2 [Compound 34, (2′S,3S,6′S)-2′,5-dimethyl-6′-(1-methyltriazol-4-yl)spiro[indoline-3,4′-piperidine]-2-one]",IC50,< 50 nM
"C[C@H]1C[C@@]2(C[C@@H](c3cn(C)nn3)N1)C(=O)Nc1ccc(Cl)cc12 [Compound 35, (2′S,3S,6′S)-5-chloro-2′-methyl-6′-(1-methyltriazol-4-yl)spiro[indoline-3,4′-piperidine]-2-one]",IC50,< 50 nM
